Assay results reported in patent publication US11649255B2, “Indazoles as hematopoietic progenitor kinase 1 (HPK1) inhibitors and methods using same” (1st Biotherapeutics, Inc., priority 2020, dated 2023).
pIC50: −log10 of the molar value.

Molecular target: recombinant human HPK1 (Homo sapiens (Human), UniProt Q92918)
Assay: HPK1 kinase assay (ADP-Glo)
Assay type: biochemical
Settings: 25 μM ATP, MBP substrate
Procedure, shortened: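 Activity was read as ADP formed, detected by ADP-Glo luminescence after the reaction of 5 ng recombinant human HPK1 with MBP and ATP (stocks 0.5 μg/μl and 25 μM) for 40 min at 30 °C. Buffer was Tris pH 7.5 with MgCl2, BSA and DTT, with compound in 0.5% DMSO. IC50 came from inhibition curves.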

Chain of recombinant human HPK1 (Q92918 whole entry): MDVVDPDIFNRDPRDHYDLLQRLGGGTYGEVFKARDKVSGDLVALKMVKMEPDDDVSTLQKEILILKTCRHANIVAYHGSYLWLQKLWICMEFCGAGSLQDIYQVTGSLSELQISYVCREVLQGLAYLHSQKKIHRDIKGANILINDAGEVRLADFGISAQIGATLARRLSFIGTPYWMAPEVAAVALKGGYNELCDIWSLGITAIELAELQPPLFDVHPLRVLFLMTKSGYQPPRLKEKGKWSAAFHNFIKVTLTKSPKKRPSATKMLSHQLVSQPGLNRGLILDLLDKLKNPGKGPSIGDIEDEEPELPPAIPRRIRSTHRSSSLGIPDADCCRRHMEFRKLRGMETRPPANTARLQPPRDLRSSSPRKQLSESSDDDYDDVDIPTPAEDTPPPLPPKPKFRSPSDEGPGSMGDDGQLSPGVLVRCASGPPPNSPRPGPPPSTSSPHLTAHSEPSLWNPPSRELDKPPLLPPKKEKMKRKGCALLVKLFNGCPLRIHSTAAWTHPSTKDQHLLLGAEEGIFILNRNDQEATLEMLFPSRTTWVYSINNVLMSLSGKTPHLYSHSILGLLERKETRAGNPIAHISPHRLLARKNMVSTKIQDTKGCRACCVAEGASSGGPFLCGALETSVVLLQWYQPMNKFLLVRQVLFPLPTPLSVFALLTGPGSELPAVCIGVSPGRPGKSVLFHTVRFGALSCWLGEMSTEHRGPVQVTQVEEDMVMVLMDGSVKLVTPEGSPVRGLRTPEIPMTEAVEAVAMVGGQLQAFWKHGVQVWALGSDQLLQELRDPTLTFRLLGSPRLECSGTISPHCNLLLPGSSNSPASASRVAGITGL

| SMILES | pIC50 |
| --- | --- |
| O=C(Nc1cn2cc(-c3c(Cl)c(F)c(NCC4CC4)c4[nH]ncc34)ccc2n1)[C@@H]1C[C@@H]1F [Example 421, (1S,2S)-N-(6-(5-chloro-7-((cyclopropylmethyl)amino)-6-fluoro-1H-indazol-4-yl)imidazo[1,2-a]pyridin-2-yl)-2-fluorocyclopropane-1-carboxamide] | > 7.00 |
| COC[C@H](C)c1c(F)c(Cl)c(-c2ccc3nc(NC(=O)[C@@H]4C[C@@H]4F)cn3c2)c2cn[nH]c12 [Example 422, (1S,2S)-N-(6-(5-chloro-6-fluoro-7-((R)-1-methoxypropan-2-yl)-1H-indazol-4-yl)imidazo[1,2-a]pyridin-2-yl)-2-fluorocyclopropane-1-carboxamide] | > 7.00 |
| COC[C@@H](C)c1c(F)c(Cl)c(-c2ccc3nc(NC(=O)[C@@H]4C[C@@H]4F)cn3c2)c2cn[nH]c12 [Example 423, (1S,2S)-N-(6-(5-chloro-6-fluoro-7-((S)-1-methoxypropan-2-yl)-1H-indazol-4-yl)imidazo[1,2-a]pyridin-2-yl)-2-fluorocyclopropane-1-carboxamide] | > 7.00 |
| CCC(=O)NC(C)c1c(F)c(Cl)c(-c2ccc3nc(NC(=O)[C@@H]4C[C@@H]4F)cn3c2)c2cn[nH]c12 (stereo partly drawn) [Example 424, (1S,2S)-N-(6-(5-chloro-6-fluoro-7-(1-propionamidoethyl)-1H-indazol-4-yl)imidazo[1,2-a]pyridin-2-yl)-2-fluorocyclopropane-1-carboxamide] | > 7.00 |
| CC(Nc1c(F)c(Cl)c(-c2ccc3nc(NC(=O)[C@@H]4C[C@@H]4F)cn3c2)c2cn[nH]c12)C(F)F (stereo partly drawn) [Example 425, (1S,2S)-N-(6-(5-chloro-7-((1,1-difluoropropan-2-yl)amino)-6-fluoro-1H-indazol-4-yl)imidazo[1,2-a]pyridin-2-yl)-2-fluorocyclopropane-1-carboxamide] | > 7.00 |
| CC(NC1COC1)c1c(F)c(Cl)c(-c2ccc3nc(NC(=O)[C@@H]4C[C@@H]4F)cn3c2)c2cn[nH]c12 (stereo partly drawn) [Example 427, (1S,2S)-N-(6-(5-chloro-6-fluoro-7-(1-(oxetan-3-ylamino)ethyl)-1H-indazol-4-yl)imidazo[1,2-a]pyridin-2-yl)-2-fluorocyclopropane-1-carboxamide] | > 7.00 |
| CC(NC(=O)C(F)(F)F)c1c(F)c(Cl)c(-c2ccc3nc(NC(=O)[C@@H]4C[C@@H]4F)cn3c2)c2cn[nH]c12 (stereo partly drawn) [Example 428, (1S,2S)-N-(6-(5-chloro-6-fluoro-7-(1-(2,2,2-trifluoroacetamido)ethyl)-1H-indazol-4-yl)imidazo[1,2-a]pyridin-2-yl)-2-fluorocyclopropane-1-carboxamide] | > 7.00 |
| CC(NC1(C#N)CC1)c1c(F)c(Cl)c(-c2ccc3nc(NC(=O)[C@@H]4C[C@@H]4F)cn3c2)c2cn[nH]c12 (stereo partly drawn) [Example 429, (1S,2S)-N-(6-(5-chloro-7-(1-((1-cyanocyclopropyl)amino)ethyl)-6-fluoro-1H-indazol-4-yl)imidazo[1,2-a]pyridin-2-yl)-2-fluorocyclopropane-1-carboxamide] | > 7.00 |
| CC(NC(=O)C1CCC1)c1c(F)c(Cl)c(-c2ccc3nc(NC(=O)[C@@H]4C[C@@H]4F)cn3c2)c2cn[nH]c12 (stereo partly drawn) [Example 430, N-(1-(5-chloro-6-fluoro-4-(2-((1S,2S)-2-fluorocyclopropane-1-carboxamido)imidazo[1,2-a]pyridin-6-yl)-1H-indazol-7-yl)ethyl)cyclobutanecarboxamide] | > 7.00 |
| CNC(=O)C(C)c1c(F)c(Cl)c(-c2ccc3nc(NC(=O)[C@@H]4C[C@@H]4F)cn3c2)c2cn[nH]c12 (stereo partly drawn) [Example 433, (1S,2S)-N-(6-(5-chloro-6-fluoro-7-(1-(methylamino)-1-oxopropan-2-yl)-1H-indazol-4-yl)imidazo[1,2-a]pyridin-2-yl)-2-fluorocyclopropane-1-carboxamide] | > 7.00 |
| CNC(=O)N(C)c1c(F)c(Cl)c(-c2ccc3nc(NC(=O)[C@@H]4C[C@@H]4F)cn3c2)c2cn[nH]c12 [Example 435, (1S,2S)-N-(6-(5-chloro-7-(1,3-dimethylureido)-6-fluoro-1H-indazol-4-yl)imidazo[1,2-a]pyridin-2-yl)-2-fluorocyclopropane-1-carboxamide] | > 7.00 |
| CO[C@H](C)[C@@H](OC)c1c(F)c(Cl)c(-c2ccc3nc(NC(=O)[C@@H]4C[C@@H]4F)cn3c2)c2cn[nH]c12 [Example 440, (1S,2S)-N-(6-(5-chloro-7-((1S,2R)-1,2-dimethoxypropyl)-6-fluoro-1H-indazol-4-yl)imidazo[1,2-a]pyridin-2-yl)-2-fluorocyclopropane-1-carboxamide] | > 7.00 |
| CC(NC(=O)C(F)F)c1c(F)c(Cl)c(-c2ccc3nc(NC(=O)[C@@H]4C[C@@H]4F)cn3c2)c2cn[nH]c12 (stereo partly drawn) [Example 441, (1S,2S)-N-(6-(5-chloro-7-(1-(2,2-difluoroacetamido)ethyl)-6-fluoro-1H-indazol-4-yl)imidazo[1,2-a]pyridin-2-yl)-2-fluorocyclopropane-1-carboxamide] | > 7.00 |
| Cc1ncc(-c2c(F)c(Cl)c(-c3ccc4nc(NC(=O)[C@@H]5C[C@@H]5F)cn4c3)c3cn[nH]c23)[nH]1 [Example 442, (1S,2S)-N-(6-(5-chloro-6-fluoro-7-(2-methyl-1H-imidazol-5-yl)-1H-indazol-4-yl)imidazo[1,2-a]pyridin-2-yl)-2-fluorocyclopropane-1-carboxamide] | > 7.00 |
| CCNC(=O)C(C)c1c(F)c(Cl)c(-c2ccc3nc(NC(=O)[C@@H]4C[C@@H]4F)cn3c2)c2cn[nH]c12 (stereo partly drawn) [Example 445, (1S,2S)-N-(6-(5-chloro-7-(1-(ethylamino)-1-oxopropan-2-yl)-6-fluoro-1H-indazol-4-yl)imidazo[1,2-a]pyridin-2-yl)-2-fluorocyclopropane-1-carboxamide] | > 7.00 |

Next, values leading:

| pIC50 | SMILES |
| --- | --- |
| > 7.00 | CC(NC=O)c1c(F)c(Cl)c(-c2ccc3nc(NC(=O)[C@@H]4C[C@@H]4F)cn3c2)c2cn[nH]c12 (stereo partly drawn) [Example 426, (1S,2S)-N-(6-(5-chloro-6-fluoro-7-(1-formamidoethyl)-1H-indazol-4-yl)imidazo[1,2-a]pyridin-2-yl)-2-fluorocyclopropane-1-carboxamide] |
| 6.30 to 7.00 | O=C(Nc1cn2cc(-c3c(Cl)c(F)c(-c4cnc[nH]4)c4[nH]ncc34)ccc2n1)[C@@H]1C[C@@H]1F [Example 431, (1S,2S)-N-(6-(5-chloro-6-fluoro-7-(1H-imidazol-5-yl)-1H-indazol-4-yl)imidazo[1,2-a]pyridin-2-yl)-2-fluorocyclopropane-1-carboxamide] |
| > 7.00 | CC(c1c(F)c(Cl)c(-c2ccc3nc(NC(=O)[C@@H]4C[C@@H]4F)cn3c2)c2cn[nH]c12)[S+](C)[O-] (stereo partly drawn) [Example 443, (1S,2S)-N-(6-(5-chloro-6-fluoro-7-(1-(methylsulflnyl)ethyl)-1H-indazol-4-yl)imidazo[1,2-a]pyridin-2-yl)-2-fluorocyclopropane-1-carboxamide] |
| > 7.00 | CC(c1c(F)c(Cl)c(-c2ccc3nc(NC(=O)[C@@H]4C[C@@H]4F)cn3c2)c2cn[nH]c12)S(C)(=O)=O (stereo partly drawn) [Example 444, (1S,2S)-N-(6-(5-chloro-6-fluoro-7-(1-(methylsulfonyl)ethyl)-1H-indazol-4-yl)imidazo[1,2-a]pyridin-2-yl)-2-fluorocyclopropane-1-carboxamide] |
| > 7.00 | C=Cc1c(F)cc2[nH]ncc2c1-c1ccn2nc(NC(=O)[C@@H]3C[C@@H]3F)cc2c1 [Example 447, (1S,2S)-2-fluoro-N-(5-(6-fluoro-5-vinyl-1H-indazol-4-yl)pyrazolo[1,5-a]pyridin-2-yl)cyclopropane-1-carboxamide] |
| > 7.00 | O=C(Nc1cc2cc(-c3c(Cl)ccc4[nH]ncc34)ccn2n1)[C@@H]1C[C@@H]1F [Example 448, (1S,2S)-N-(5-(5-chloro-1H-indazol-4-yl)pyrazolo[1,5-a]pyridin-2-yl)-2-fluorocyclopropane-1-carboxamide] |
| 6.30 to 7.00 | COc1ccc2[nH]ncc2c1-c1ccn2nc(NC(=O)[C@@H]3C[C@@H]3F)cc2c1 [Example 449, (1S,2S)-2-fluoro-N-(5-(5-methoxy-1H-indazol-4-yl)pyrazolo[1,5-a]pyridin-2-yl)cyclopropane-1-carboxamide] |
| < 6.00 | CN(C)c1ccc2[nH]ncc2c1-c1ccn2nc(NC(=O)[C@@H]3C[C@@H]3F)cc2c1 [Example 450, (1S,2S)-N-(5-(5-(dimethylamino)-1H-indazol-4-yl)pyrazolo[1,5-a]pyridin-2-yl)-2-fluorocyclopropane-1-carboxamide] |
| > 7.00 | O=C(Nc1cc2cc(-c3c(C(F)(F)F)ccc4[nH]ncc34)ccn2n1)[C@@H]1C[C@@H]1F [Example 451, (1S,2S)-2-fluoro-N-(5-(5-(trifluoromethyl)-1H-indazol-4-yl)pyrazolo[1,5-a]pyridin-2-yl)cyclopropane-1-carboxamide] |
| > 7.00 | CCc1ccc2[nH]ncc2c1-c1ccn2nc(NC(=O)[C@@H]3C[C@@H]3F)cc2c1 [Example 452, (1S,2S)-N-(5-(5-ethyl-1H-indazol-4-yl)pyrazolo[1,5-a]pyridin-2-yl)-2-fluorocyclopropane-1-carboxamide] |
| 6.00 to 6.30 | CC(=O)c1ccc2[nH]ncc2c1-c1ccn2nc(NC(=O)[C@@H]3C[C@@H]3F)cc2c1 [Example 453, (1S,2S)-N-(5-(5-acetyl-1H-indazol-4-yl)pyrazolo[1,5-a]pyridin-2-yl)-2-fluorocyclopropane-1-carboxamide] |
| 6.30 to 7.00 | CN(C)c1c(F)cc2[nH]ncc2c1-c1ccn2nc(NC(=O)[C@@H]3C[C@@H]3F)cc2c1 [Example 454, (1S,2S)-N-(5-(5-(dimethylamino)-6-fluoro-1H-indazol-4-yl)pyrazolo[1,5-a]pyridin-2-yl)-2-fluorocyclopropane-1-carboxamide] |
| > 7.00 | O=C(Nc1cc2cc(-c3c(Br)ccc4[nH]ncc34)ccn2n1)[C@@H]1C[C@@H]1F [Example 455, (1S,2S)-N-(5-(5-bromo-1H-indazol-4-yl)pyrazolo[1,5-a]pyridin-2-yl)-2-fluorocyclopropane-1-carboxamide] |
